According to the CheMixHub viscosity set:
± gives the uncertainty stated by the source.

Test: xn = mol fraction of the nth substance listed
Settings: 100 kPa

CC(C)CC(=O)CC(C)C + CCCC(C)O
viscosity [mPa·s]
Settings	x1 = 0.0794	x1 = 0.1627	x1 = 0.2381	x1 = 0.3487	x1 = 0.4381	x1 = 0.5619	x1 = 0.6565	x1 = 0.7364	x1 = 0.8517	x1 = 0.9341
293.15 K	3.12 ± 0.1	2.32 ± 0.07	1.78 ± 0.06	1.18 ± 0.04	0.84 ± 0.03	0.58 ± 0.02	0.51 ± 0.02	0.55 ± 0.02	0.71 ± 0.02	0.85 ± 0.03
298.15 K	2.63 ± 0.08	1.94 ± 0.06	1.43 ± 0.05	0.89 ± 0.03	0.62 ± 0.02	0.43 ± 0.02	0.4 ± 0.01	0.47 ± 0.02	0.66 ± 0.02	0.81 ± 0.03
303.15 K	2.24 ± 0.07	1.68 ± 0.05	1.21 ± 0.04	0.76 ± 0.03	0.52 ± 0.02	0.34 ± 0.01	0.32 ± 0.01	0.41 ± 0.01	0.6 ± 0.02	0.76 ± 0.02
308.15 K	1.89 ± 0.06	1.41 ± 0.05	1.05 ± 0.03	0.66 ± 0.02	0.44 ± 0.02	0.27 ± 0.01	0.24 ± 0.01	0.33 ± 0.01	0.52 ± 0.02	0.7 ± 0.02
313.15 K	1.55 ± 0.05	1.17 ± 0.04	0.87 ± 0.03	0.55 ± 0.02	0.37 ± 0.01	0.22 ± 0.01	0.19 ± 0.01	0.28 ± 0.01	0.46 ± 0.02	0.64 ± 0.02
318.15 K	1.28 ± 0.04	0.98 ± 0.03	0.75 ± 0.02	0.49 ± 0.02	0.32 ± 0.01	0.18 ± 0.01	0.16 ± 0.01	0.24 ± 0.01	0.42 ± 0.02	0.59 ± 0.02
323.15 K	1.09 ± 0.03	0.84 ± 0.03	0.65 ± 0.02	0.42 ± 0.02	0.26 ± 0.01	0.14 ± 0.01	–	0.2 ± 0.01	0.38 ± 0.01	0.53 ± 0.02

OCCOCCOCCOCCOCCOCCOCCO + O
viscosity [mPa·s]
Settings	293.15 K	298.15 K	303.15 K	308.15 K	313.15 K	318.15 K	323.15 K
x2 = 0.059	97.27 ± 3.6	73.66 ± 2.1	57.03 ± 2.1	45.14 ± 1.4	36.26 ± 0.9	29.64 ± 0.69	24.53 ± 0.5
x2 = 0.088	93.78 ± 3.4	71.34 ± 1.8	53.69 ± 1.7	42.57 ± 1.1	34.29 ± 0.69	28 ± 0.51	23.21 ± 0.35
x2 = 0.188	92.26 ± 3.3	69.66 ± 1.7	53.76 ± 1.7	42.35 ± 1.1	33.98 ± 0.67	27.72 ± 0.49	22.88 ± 0.33
x2 = 0.221	92.02 ± 3.3	69.89 ± 2.3	53.68 ± 2	42.29 ± 1.2	33.97 ± 0.8	27.67 ± 0.58	22.86 ± 0.41
